Measured values from paper PMC4145793, “Inhibitory and Acceleratory Effects of Inonotus obliquus on Tyrosinase Activity and Melanin Formation in B16 Melanoma Cells” (Evidence-based Complementary and Alternative Medicine : eCAM, 2014).
Values after ≈ are worked out from the molar mass of the structure shown. Values joined by “and” are separate entries in the source; they are usually repeats but may differ in a detail not shown here. Identical values can stand only once. Like-named read-outs stand apart in the source and are kept apart here.

Key:
[1] = cell viability, MTT colorimetric assay; format: cell-based; details: mouse
Procedure: (§1) To determine the safety of the various compounds, after treatment with the test compounds cell viability was determined by using MTT colorimetric assay and cell apoptosis rate by using AnnexinV-FITC apoptosis analysis kit (Tianjin Sungene Biotech Co., Ltd). 1 × 10^6 cells were added to individual wells of a 24-well plate. […] Cell viability was determined in a colorimetric assay using mitochondrial dehydrogenase activity in active mitochondria to form purple formazan. Apoptosis rate in a fluorochrome assay using flow cytometry (BD, USA).

B16 melanoma cells [2] = assay: cell viability, MTT colorimetric assay; format: cell-based; details: for reduction of viable cells: at the higher doses; for cytotoxic activity (reduction of viable cells): dose of 100 μM; for cytotoxic effect: 100, 200, 400 μM, as a whole
Procedure: as §1

[3] = tested on: cellular tyrosinase in B16 melanoma cells; assay: cellular tyrosinase activity in B16 melanoma cells; format: cell-based; details: for inhibition at 400 µM: Mus musculus, read-out: inhibition on cellular tyrosinase activity; for effect on cellular tyrosinase activity: 100-400 μM
[4] = biological target: T1, tyrosinase in B16 melanoma cells (Mus musculus, UniProt P11344); assay: kinetic analysis of tyrosinase activity inhibition, B16 lysate protein, L-DOPA substrate, Lineweaver-Burk plot; format: biochemical; details: for K IS (inhibition constant) / mode of inhibition: L-DOPA substrate; for K IS (inhibition constant): from intercept of Lineweaver-Burk plots; for mode of inhibition: Lineweaver-Burk plot
T1 construct: Each well of a 96-well plate contained 40 μg of lysate protein; endogenous in cells; host or cells: B16 melanoma cells (lysate)
T1 sequence (P11344 19-533): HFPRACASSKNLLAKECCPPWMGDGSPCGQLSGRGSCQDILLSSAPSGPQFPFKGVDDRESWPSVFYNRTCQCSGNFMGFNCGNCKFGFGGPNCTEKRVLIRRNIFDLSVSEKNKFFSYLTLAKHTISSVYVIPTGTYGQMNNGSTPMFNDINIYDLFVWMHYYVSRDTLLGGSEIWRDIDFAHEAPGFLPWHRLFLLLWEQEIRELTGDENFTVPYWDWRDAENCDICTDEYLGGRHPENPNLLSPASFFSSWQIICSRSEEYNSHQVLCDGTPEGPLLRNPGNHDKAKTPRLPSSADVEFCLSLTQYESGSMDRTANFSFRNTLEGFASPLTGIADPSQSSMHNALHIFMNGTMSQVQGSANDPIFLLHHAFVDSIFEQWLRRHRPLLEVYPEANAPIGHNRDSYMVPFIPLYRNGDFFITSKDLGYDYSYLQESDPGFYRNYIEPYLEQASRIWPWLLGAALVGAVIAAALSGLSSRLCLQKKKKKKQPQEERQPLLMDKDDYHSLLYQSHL
Procedure: The cells were treated with test compounds as described above for the determination of tyrosinase activity. […] After incubation at 37°C for 30 min, the absorbance was measured at 475 nm. The inhibition constants for compounds and inhibition type were calculated using Lineweaver-Burk plot. The Lineweaver-Burk plot was widely used to determine important terms in enzyme kinetics, such as K m and V max. The plot provided a useful graphical method for analysis of the Michaelis-Menten equation: V = V max [S]/(K m + [S]). It took the reciprocal gave Lineweaver-Burk plot: 1/V = (K m + [S])/V max [S] = ((K m/V max)(1/ [S])) + (1/V max), where V is the reaction velocity (the reaction rate), K m is the Michaelis-Menten constant, V max is the maximum reaction velocity, and [S] is the substrate concentration. The y-intercept of such a graph was equivalent to the inverse of V max; the x-intercept of the graph represents −1/K m. It also gave a quick, visual impression of the different forms of enzyme inhibition. The inhibition constant (K I or K IS) was generated from the slope of the apparent […]/V max or 1/V max versus the concentrations of compounds.

B16 melanoma cells [5] = assay: cell apoptosis rate, AnnexinV-FITC flow cytometry; format: cell-based; details: 72 h
Procedure: as §1

B16 melanoma cells [6] = assay: cellular melanin content in B16 melanoma cells; format: cell-based; details: 100-400 μM, 72 h
Procedure: For melanin content, the cells were treated with test compounds or kojic acid in the presence or absence of α-MSH as described above. The cells were washed with PBS and lyzed with 800 μL of 1 N NaOH (Sigma, USA) containing 10% DMSO for 1 h at 80°C. The absorbance at 400 nm was measured. The melanin content was determined from a standard curve prepared from an authentic standard of synthetic melanin (Sigma, USA).

[7] = biological target: T1, tyrosinase in B16 melanoma cells; assay: kinetic analysis of tyrosinase activity inhibition, B16 lysate protein, L-DOPA substrate, Lineweaver-Burk plot; format: biochemical; details: read-out: AC50, negative inhibition (acceleration) effect on tyrosinase
Mushroom tyrosinase = assay: cell-free mushroom tyrosinase assay of fractions (L-Tyr substrate); format: biochemical; details: L-Tyr as substrate, fractions at 0-12 μg/mL
Procedure: Mushroom tyrosinase and L-Tyr were reconstituted in 50 mM Na2HPO4-NaH2PO4 buffer (pH 6.8) at 1000 U/mL and 2.5 mM, respectively. A mixture of 60 μL of 50 mM Na2HPO4-NaH2PO4 buffer (pH 6.8) and 100 μL L-Tyr was designated as solution 1 (control group). […] Solutions 1 and 2 were added to 40 μL tyrosinase for 6 min reaction time at 37°C, individually. Absorbance of the resulting solutions was recorded every min by Beckman TU-1810 spectrophotometer at 475 nm. One unit of tyrosinase activity was arbitrarily defined as a rate of increase of 1 absorbance unit per min in the initial linear region of a plot of absorbance against time. The tyrosinase activity determined by the increasing absorbance at 475 nm accompanying by the oxidation of the substrates was calculated as the following formula [20]: (1) Tyrosinase activity %=A2/A1×100, where A1 is absorbance at 475 nm with solutions 1 and tyrosinase and A2 is absorbance at 475 nm with solutions 2 and tyrosinase.

[8] = 100 μM, 72 h, percentage of controls (mean ± SD), read-out: Cell viability
[9] = 200 μM, 72 h, percentage of controls (mean ± SD), read-out: Cell viability
[10] = 400 μM, 72 h, percentage of controls (mean ± SD), read-out: Cell viability
[11] = absence of α-MSH stimulation, 72 h
[12] = α-MSH-stimulated (100 μM α-MSH), 72 h
[13] = 100 μM, control set as 0% (mean ± SD)
[14] = 200 μM, control set as 0% (mean ± SD)
[15] = 400 μM, control set as 0% (mean ± SD)
[16] = α-MSH-stimulated (100 μM α-MSH)
[17] = B16 melanoma cells, 100 μM, 72 h, percentage of controls (mean ± SD), read-out: Cell viability
[18] = B16 melanoma cells, 200 μM, 72 h, percentage of controls (mean ± SD), read-out: Cell viability
[19] = B16 melanoma cells, 400 μM, 72 h, percentage of controls (mean ± SD), read-out: Cell viability

SMILES | effect on cellular tyrosinase activity [3, 11] | effect on cellular tyrosinase activity [3, 12] | Apoptosis rate (B16 melanoma cells [5]; [13]) | Apoptosis rate (B16 melanoma cells [5]; [14]) | Apoptosis rate (B16 melanoma cells [5]; [15]) | effect on cellular melanin content (B16 melanoma cells [6]; absence of α-MSH stimulation) | effect on cellular melanin content (B16 melanoma cells [6]; [16]) | viability at 72 h, 100 µM [1, 17] | viability at 72 h, 200 µM [1, 18] | viability at 72 h, 400 µM [1, 19] | cytotoxic effect (B16 melanoma cells [2]) | also measured
C=C(C)[C@@H]1CC[C@]2(CO)CC[C@]3(C)[C@H](CC[C@@H]4[C@@]5(C)CC[C@H](O)C(C)(C)[C@@H]5CC[C@]43C)[C@@H]12 [Fa-a, betulin] | significantly reduced cellular tyrosinase activity | able to inhibit the increase in cellular tyrosinase activity | 9.01 ± 2.21% | 12.21 ± 3.03% | 15.31 ± 2.90% | reduced cellular melanin content | reduced cellular melanin content |  |  |  |  | viability at 72 h, 100 µM [1, 8]: 88.3 ± 3.21%; viability at 72 h, 200 µM [1, 9]: 75.1 ± 2.65%; viability at 72 h, 400 µM [1, 10]: 65.3 ± 4.41%; reduction of viable cells (B16 melanoma cells [2]): 34.68%; cytotoxic activity (reduction of viable cells) (B16 melanoma cells [2]): 11.69%; inhibition at 400 µM ([3]; B16, 400 μM, 72 h, absence of α-MSH): 30%; IC50 [4]: 5.13 µM; Ki [4]: 0.4 µM; K IS (inhibition constant) [4]: 0.4 µM; mode of inhibition [4]: noncompetitive inhibitor; mode of inhibition ([4]; listed as Betulin): noncompetitive inhibition
CC(C)=CCC[C@@H](C(=O)O)[C@H]1CC[C@@]2(C)C3=C(CC[C@]12C)[C@@]1(C)CC[C@H](O)C(C)(C)[C@@H]1CC3 [Fa-b, trametenolic acid] | significantly reduced cellular tyrosinase activity | able to inhibit the increase in cellular tyrosinase activity | 5.11 ± 4.01% | 6.51 ± 3.31% | 10.09 ± 4.31% | reduced cellular melanin content | reduced cellular melanin content |  |  |  |  | viability at 72 h, 100 µM [1, 8]: 96.5 ± 3.08%; viability at 72 h, 200 µM [1, 9]: 85.3 ± 4.13%; viability at 72 h, 400 µM [1, 10]: 70 ± 2.05%; reduction of viable cells (B16 melanoma cells [2]): 29.98%; cytotoxic activity (reduction of viable cells) (B16 melanoma cells [2]): 4.55%; inhibition at 400 µM ([3]; B16, 72 h): 23%; IC50 [4]: 7.25 µM; Ki [4]: 0.9 µM; K IS (inhibition constant) [4]: 0.5 µM; mode of inhibition [4]: mixed inhibitor; mode of inhibition ([4]; listed as trametenolic acid): mixed inhibition
CC(C)=CC[C@@H](O)[C@@H](C)[C@H]1CC[C@@]2(C)C3=C(CC[C@]12C)[C@@]1(C)CC[C@H](O)C(C)(C)[C@@H]1CC3 [Fb-a, inotodiol] |  | significantly increased melanin content and cellular tyrosinase activity | 3.91 ± 3.27% | 5.10 ± 2.61∗ % | 6.07 ± 3.53∗∗ % | significantly increased melanin content and cellular tyrosinase activity | significantly increased melanin content and cellular tyrosinase activity | 99.3 ± 1.53% | 99.4 ± 1.41% | 98.2 ± 1.35% | a little or no cytotoxic effect | increase of cellular tyrosinase activity ([3]; 400 μM, 72 h, absence of α-MSH): 21.24%; AC50 [4]: 9.74 µM
CC(C)=CCC[C@@H](C)[C@H]1CC[C@@]2(C)C3=C(CC[C@]12C)[C@@]1(C)CC[C@H](O)C(C)(C)[C@@H]1CC3 [Fb-b, lanoserol] |  | significantly increased melanin content and cellular tyrosinase activity | 0.31 ± 4.37∗∗∗ % | 2.62 ± 3.33∗∗∗ % | 5.12 ± 2.35∗ % | significantly increased melanin content and cellular tyrosinase activity | significantly increased melanin content and cellular tyrosinase activity | 100 ± 2.56% | 96.3 ± 2.61% | 94.6 ± 3.03% | a little or no cytotoxic effect | increase of cellular tyrosinase activity ([3]; 400 μM, 72 h, absence of α-MSH): 18.21%; AC50 [7]: 8.43 µM
O=C(O)c1cccnc1 [Fc-a, nicotinie acid] | slight or no inhibition |  | 10.12% and 10.12 ± 1.14% | 25.44% and 25.44 ± 1.53∗∗∗ % | 30.51% and 30.51 ± 1.11∗∗∗ % |  |  | 73.5 ± 3.11% | 45.3 ± 2.56% | 40.5 ± 2.12% | highest cytotoxic effect in dose-dependent manner | 
CC(C(O)CCC(C)(C)O)[C@H]1CC[C@@]2(C)C3=C(CC[C@]12C)[C@@]1(C)CC[C@H](O)C(C)(C)[C@@H]1CC3 (stereo partly drawn) [Fd-a, 3β,22,25-trihydroxy-lanosta-8-ene] | slight or no inhibition |  |  |  |  |  |  |  |  |  |  | viability at 72 h, 100 µM [1]: 96.7 ± 1.01%; viability at 72 h, 200 µM [1]: 97.1 ± 1.12%; viability at 72 h, 400 µM [1]: 85 ± 1.51%; Apoptosis rate (B16 melanoma cells [5]; mouse, 100 μM): 1.21 ± 2.31%; Apoptosis rate (B16 melanoma cells [5]; mouse, 200 μM): 2.15 ± 3.92%
O=c1cc(CO)occ1O [kojic acid, Kojic acid, reference compound] | reduced tyrosinase activity as well as melanin content | reduced tyrosinase activity as well as melanin content | 9.45 ± 1.15% | 12.36 ± 1.19% | 15.05 ± 2.21% | reduced tyrosinase activity as well as melanin content | reduced tyrosinase activity as well as melanin content | 92.4 ± 4.41% | 86.1 ± 2.12% | 70.9 ± 3.12% |  | IC50, tyrosinase inhibitory activity (Mushroom tyrosinase): 5.23 µg/mL (≈ 36.8 µM)
